What was measured:
Assay type in all cases: biochemical
KRAS G12S = target: T1, KRAS G12S (Homo sapiens, UniProt P01116, G12S); assay: HTRF KRAS-SOS1 interaction assay, KRAS G12S; details: binned ≤2 μM / >2 μM, read-out: Inhibition of KRAS G12S (IC50)
T1 construct: made in house; host or cells: E. coli, e.g. BL21 (DE3)
Outline: (§1)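 GST-KRAS + anti-GST-Eu; His-hSOS1 + anti-6His-XL665; cpd in DMSO, duplicate, 10–0.01 μM; ~10 min incubation; HTRF ex 337/em 620, 665 nm; IC50 fitted on 665/620 ratio.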

KRAS WT = target: T2, KRAS WT (Homo sapiens, UniProt P01116); assay: HTRF KRAS-SOS1 interaction assay, wildtype KRAS; details: binned ≤2 μM / >2 μM, read-out: Inhibition of KRAS WT (IC50)
T2 construct: made in house; host or cells: E. coli, e.g. BL21 (DE3)
Outline: as §1

KRAS G12D = target: T3, KRAS G12D (Homo sapiens, UniProt P01116, G12D); assay: HTRF KRAS-SOS1 interaction assay, KRAS G12D; details: binned ≤2 μM / >2 μM, read-out: Inhibition of KRAS G12D (IC50)
T3 construct: made in house; host or cells: E. coli, e.g. BL21 (DE3)
Outline: as §1

KRAS G12V = target: T4, KRAS G12V (Homo sapiens, UniProt P01116, G12V); assay: HTRF KRAS-SOS1 interaction assay, KRAS G12V; details: binned ≤2 μM / >2 μM, read-out: Inhibition of KRAS G12V (IC50)
T4 construct: made in house; host or cells: E. coli, e.g. BL21 (DE3)
Outline: as §1

T4 sequence (P01116 1-188 isoform P01116-2 G12V): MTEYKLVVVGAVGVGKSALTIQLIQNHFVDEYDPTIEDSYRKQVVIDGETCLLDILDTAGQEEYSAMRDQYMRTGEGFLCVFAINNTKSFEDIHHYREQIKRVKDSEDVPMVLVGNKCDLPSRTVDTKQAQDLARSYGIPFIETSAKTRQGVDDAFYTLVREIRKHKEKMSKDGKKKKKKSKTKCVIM
T1 sequence (P01116 1-188 isoform P01116-2 G12S): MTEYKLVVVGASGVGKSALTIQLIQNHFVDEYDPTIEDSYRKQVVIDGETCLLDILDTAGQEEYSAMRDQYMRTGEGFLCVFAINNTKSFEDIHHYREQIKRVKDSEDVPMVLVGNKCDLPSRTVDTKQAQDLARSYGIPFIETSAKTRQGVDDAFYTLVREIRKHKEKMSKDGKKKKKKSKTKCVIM
T3 sequence (P01116 1-188 isoform P01116-2 G12D): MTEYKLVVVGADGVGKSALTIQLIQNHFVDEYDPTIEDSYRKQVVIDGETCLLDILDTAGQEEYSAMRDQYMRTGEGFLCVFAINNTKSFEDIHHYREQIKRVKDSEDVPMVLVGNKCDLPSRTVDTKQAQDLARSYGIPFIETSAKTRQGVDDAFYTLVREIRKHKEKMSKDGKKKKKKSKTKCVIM
T2 sequence (P01116 1-188 isoform P01116-2): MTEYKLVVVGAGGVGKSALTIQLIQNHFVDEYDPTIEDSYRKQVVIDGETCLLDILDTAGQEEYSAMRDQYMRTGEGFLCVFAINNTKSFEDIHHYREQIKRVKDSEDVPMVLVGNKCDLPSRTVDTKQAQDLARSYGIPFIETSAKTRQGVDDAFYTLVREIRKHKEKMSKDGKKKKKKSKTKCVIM

SMILES	IC50 (KRAS G12S) [nM]	IC50 (KRAS WT) [nM]	IC50 (KRAS G12D) [nM]	IC50 (KRAS G12V) [nM]
N#Cc1c(N)sc2cccc(-c3c(Cl)c4c5c(nc(OC[C@@]67CCCN6C[C@H](F)C7)nc5c3F)N([C@@H](c3cccnc3N)C(F)F)CCO4)c12 (single isomer, unassigned) [Compound 672]	≤ 2000	≤ 2000	≤ 2000	≤ 2000
N#Cc1c(N)sc2c(F)ccc(-c3c(C(F)(F)F)c4c5c(nc(OC[C@@]67CCCN6C[C@H](F)C7)nc5c3F)N([C@H](CCC3CC(F)(F)C3)c3cccnc3N)CCO4)c12 (single isomer, unassigned) [Compound 689]	≤ 2000	≤ 2000	> 2000	≤ 2000
N#Cc1c(N)sc2c(F)ccc(-c3c(C(F)(F)F)c4c5c(nc(OC[C@@]67CCCN6C[C@H](F)C7)nc5c3F)N([C@H](CCC3COCCO3)c3cccnc3N)CCO4)c12 (mixture of isomers) [Compound 648, 2-amino-4-(4-((1R)-1-(2-aminopyridin-3-yl)-3-(1,4-dioxan-2-yl)propyl)-10-fluoro-2-(((2R,7aS)-2-fluorotetrahydro-1H-pyrrolizin-7a(5H)-yl)methoxy)-8-(trifluoromethyl)-5,6-dihydro-4H-[1,4]oxazepino[5,6,7-de]quinazolin-9-yl)-7-fluorobenzo[b]thiophene-3-carbonitrile]	≤ 2000	≤ 2000	≤ 2000	≤ 2000
C[C@H](c1cccnc1N)N1CCOc2c(C(F)(F)F)c(-c3ccc(F)c4sc(N)c(C#N)c34)c(F)c3nc(OC[C@@]45CCCN4CC(C#N)C5)nc1c23 (stereo partly drawn) [Compound 852, (7aS)-7a-(((9-(2-amino-3-cyano-7-fluorobenzo[b]thiophen-4-yl)-4-((R)-1-(2-aminopyridin-3-yl)ethyl)-10-fluoro-8-(trifluoromethyl)-5,6-dihydro-4H-[1,4]oxazepino[5,6,7-de]quinazolin-2-yl)oxy)methyl)hexahydro-1H-pyrrolizine-2-carbonitrile]	> 2000	≤ 2000	> 2000	> 2000
C=C(F)[C@@H](c1cccnc1N)N1CCOc2c(Cl)c(-c3ccc(F)c4sc(N)c(C#N)c34)c(F)c3nc(OC[C@@]45CCCN4C[C@H](F)C5)nc1c23 [Compound 601, 2-amino-4-(4-((R)-1-(2-aminopyridin-3-yl)-2-fluoroallyl)-8-chloro-10-fluoro-2-(((2R,7aS)-2-fluorotetrahydro-1H-pyrrolizin-7a(5H)-yl)methoxy)-5,6-dihydro-4H-[1,4]oxazepino[5,6,7-de]quinazolin-9-yl)-7-fluorobenzo[b]thiophene-3-carbonitrile]	≤ 2000	≤ 2000	≤ 2000	≤ 2000
N#Cc1c(N)sc2c(F)ccc(-c3c(C(F)(F)F)c4c5c(nc(OC[C@@]67CCCN6C[C@H](F)C7)nc5c3F)N([C@H](CCC(F)(F)F)c3cc(Cl)cnc3N)CCO4)c12 [Compound 874, 2-amino-4-(4-((R)-1-(2-amino-5-chloropyridin-3-yl)-4,4,4-trifluorobutyl)-10-fluoro-2-(((2R,7aS)-2-fluorotetrahydro-1H-pyrrolizin-7a(5H)-yl)methoxy)-8-(trifluoromethyl)-5,6-dihydro-4H-[1,4]oxazepino[5,6,7-de]quinazolin-9-yl)-7-fluorobenzo[b]thiophene-3-carbonitrile]	≤ 2000	≤ 2000	≤ 2000	≤ 2000
C[C@H](c1cccnc1Cl)N1CCOc2c(C(F)(F)F)c(-c3ccc(F)c4sc(N)c(C#N)c34)c(F)c3nc(OC[C@@]45CCCN4C[C@H](F)C5)nc1c23 [Compound 730, 2-amino-4-(4-((R)-1-(2-chloropyridin-3-yl)ethyl)-10-fluoro-2-(((2R,7aS)-2-fluorotetrahydro-1H-pyrrolizin-7a(5H)-yl)methoxy)-8-(trifluoromethyl)-5,6-dihydro-4H-[1,4]oxazepino[5,6,7-de]quinazolin-9-yl)-7-fluorobenzo[b]thiophene-3-carbonitrile]	≤ 2000	≤ 2000	≤ 2000	≤ 2000
C[C@H](c1cc(F)cnc1N)N1CCOc2c(C(F)(F)F)c(-c3ccc(F)c4sc(N)c(C#N)c34)c(F)c3nc(OCC4(CN5CC[C@@H](F)C5)CC4)nc1c23 [Compound 644, 2-amino-4-(4-((R)-1-(2-amino-5-fluoropyridin-3-yl)ethyl)-10-fluoro-2-((1-(((R)-3-fluoropyrrolidin-1-yl)methyl)cyclopropyl)methoxy)-8-(trifluoromethyl)-5,6-dihydro-4H-[1,4]oxazepino[5,6,7-de]quinazolin-9-yl)-7-fluorobenzo[b]thiophene-3-carbonitrile]	≤ 2000	≤ 2000	≤ 2000	≤ 2000
C[C@H](c1cccnc1N)N1CCOc2c(Cl)c(-c3ccc(F)c4sc(N)c(C#N)c34)c(F)c3nc(OC[C@]45CCCN4[C@H](CN)CC5)nc1c23 [Compound 915, 2-amino-4-(2-(((3S,7aR)-3-(aminomethyl)tetrahydro-1H-pyrrolizin-7a(5H)-yl)methoxy)-4-((R)-1-(2-aminopyridin-3-yl)ethyl)-8-chloro-10-fluoro-5,6-dihydro-4H-[1,4]oxazepino[5,6,7-de]quinazolin-9-yl)-7-fluorobenzo[b]thiophene-3-carbonitrile]	≤ 2000	≤ 2000	≤ 2000	≤ 2000

Results, then the compound that gave them:

IC50 (KRAS G12S) [nM]	IC50 (KRAS WT) [nM]	IC50 (KRAS G12D) [nM]	IC50 (KRAS G12V) [nM]	SMILES
≤ 2000	≤ 2000	≤ 2000	≤ 2000	C[C@H](c1nccnc1N)N1CCOc2c(C(F)(F)F)c(-c3ccc(F)c4sc(N)c(C#N)c34)c(F)c3nc(OC[C@@]45CCCN4CC(=C(F)F)C5)nc1c23 [Compound 876, 2-amino-4-(4-((R)-1-(3-aminopyrazin-2-yl)ethyl)-2-(((S)-2-(difluoromethylene)tetrahydro-1H-pyrrolizin-7a(5H)-yl)methoxy)-10-fluoro-8-(trifluoromethyl)-5,6-dihydro-4H-[1,4]oxazepino[5,6,7-de]quinazolin-9-yl)-7-fluorobenzo[b]thiophene-3-carbonitrile]
≤ 2000	≤ 2000	≤ 2000	≤ 2000	C[C@H](c1cc(C#N)cnc1N)N1CCOc2c(Cl)c(-c3ccc(F)c4sc(N)c(C#N)c34)c(F)c3nc(OC[C@@]45CCCN4C[C@H](F)C5)nc1c23 [Compound 873, 6-amino-5-((1R)-1-(9-(2-amino-3-cyano-7-fluorobenzo[b]thiophen-4-yl)-8-chloro-10-fluoro-2-(((2R,7aS)-2-fluorotetrahydro-1H-pyrrolizin-7a(5H)-yl)methoxy)-5,6-dihydro-4H-[1,4]oxazepino[5,6,7-de]quinazolin-4-yl)ethyl)nicotinonitrile]
≤ 2000	≤ 2000	≤ 2000	≤ 2000	C[C@H](c1cc(F)cnc1N)N1CCOc2c(C(F)(F)F)c(-c3ccc(F)c4sc(N)c(C#N)c34)c(F)c3nc(OC[C@@]45CCCN4C[C@H](F)C5)nc1c23 (single isomer, unassigned) [Compound 864]
≤ 2000	≤ 2000	≤ 2000	≤ 2000	C[C@H](c1cccnc1N)N1CCOc2c(C(F)(F)F)c(-c3ccc(F)c4sc(N)c(C#N)c34)c(F)c3nc(OCC4(CN5CCC(F)(F)CC5)CC4)nc1c23 [Compound 778, 2-amino-4-(4-((R)-1-(2-aminopyridin-3-yl)ethyl)-2-((1-((4,4-difluoropiperidin-1-yl)methyl)cyclopropyl)methoxy)-10-fluoro-8-(trifluoromethyl)-5,6-dihydro-4H-[1,4]oxazepino[5,6,7-de]quinazolin-9-yl)-7-fluorobenzo[b]thiophene-3-carbonitrile]
≤ 2000	≤ 2000	≤ 2000	≤ 2000	N#Cc1c(N)sc2c(F)ccc(-c3c(Cl)c4c5c(nc(OC[C@@]67CCCN6C[C@H](F)C7)nc5c3F)N([C@H](/C=C/C3CC3)c3cccnc3N)CCO4)c12 [Compound 676, 2-amino-4-(4-((R,E)-1-(2-aminopyridin-3-yl)-3-cyclopropylallyl)-8-chloro-10-fluoro-2-(((2R,7aS)-2-fluorotetrahydro-1H-pyrrolizin-7a(5H)-yl)methoxy)-5,6-dihydro-4H-[1,4]oxazepino[5,6,7-de]quinazolin-9-yl)-7-fluorobenzo[b]thiophene-3-carbonitrile]
≤ 2000	≤ 2000	≤ 2000	≤ 2000	COc1ccc([C@@H](C)N2CCOc3c(Cl)c(-c4ccc(F)c5sc(N)c(C#N)c45)c(F)c4nc(OC[C@@]56CCCN5C[C@H](F)C6)nc2c34)c(N)n1 [Compound 706, 2-amino-4-(4-((R)-1-(2-amino-6-methoxypyridin-3-yl)ethyl)-8-chloro-10-fluoro-2-(((2R,7aS)-2-fluorotetrahydro-1H-pyrrolizin-7a(5H)-yl)methoxy)-5,6-dihydro-4H-[1,4]oxazepino[5,6,7-de]quinazolin-9-yl)-7-fluorobenzo[b]thiophene-3-carbonitrile]

— patent US12668600B2 (Kumquat Biosciences Inc., priority 2023, dated 2026)
